In publication PMC11881016, “Deep‐Learning‐Based Approaches for Rational Design of Stapled Peptides With High Antimicrobial Activity and Stability” (Microbial Biotechnology, 2025):
≈ marks a conversion by molar mass, not a printed value. *1 amine or outer side, *2 acyl side, *3 side chain or, on linkers, in order; H or OH if unused. Where a SMILES comes first, the peptide text is derived from it. Bridges are numbered along the chain shown (N, C = ends). Where no end group is shown, it is not given here. [ ]: non-standard residue; d: D form. X1 = O=C([C@H](CCCCNCC=[*:3])N[*:1])[*:2]

Columns and labels:
[1] = system: Klebsiella pneumoniae (K. pneumoniae, ATCC10031); type: cell-based; conditions: for MIC K. pneumoniae: ATCC10031; for increase of antimicrobial activity against K. pneumoniae: stapled peptide compared to its linear peptide
Experimental: (§1) Escherichia coli ( E. coli , ATCC25922), Klebsiella pneumoniae ( K. pneumoniae , ATCC10031), Staphylococcus aureus ( S. aureus , ATCC6538P), Pseudomonas aeruginosa ( P. aeruginosa , ATCC27853) and methicillin‐resistant Staphylococcus aureus (MRSA) were used to evaluate the antimicrobial activity of the peptides and were purchased from BeNa Culture Collection.
(§2) The MICs of the peptides in vitro were determined using the broth microdilution method with minor modifications (Wiegand et al. [2008]). Peptides were incubated with bacteria (about 5 × 10^5 CFU/mL), and PBS was used as the negative control. After 18–24 h of incubation at 37°C, the bacteria were checked for growth by recording the values at OD600, with three replicates in each group.

[2] = system: methicillin‐resistant Staphylococcus aureus (MRSA); type: cell-based; conditions: for MIC MRSA: methicillin‐resistant; for increase of antibacterial activity against MRSA: stapled peptide compared to its linear peptide
Experimental: as §1, §2

[3] = system: Pseudomonas aeruginosa (P. aeruginosa, ATCC27853); type: cell-based
Experimental: as §1, §2

[4] = system: Escherichia coli (E. coli, ATCC25922); type: cell-based
Experimental: as §1, §2

[5] = system: Staphylococcus aureus (S. aureus, ATCC6538P); type: cell-based; conditions: for MIC S. aureus: ATCC6538; for increase of antimicrobial activity against S. aureus: stapled peptide compared to its linear peptide
Experimental: as §1, §2

any bacteria = test: Wet experiment result (antimicrobial activity of the synthesised peptides, positive/negative); type: cell-based; conditions: experiment data set (Supplement S12)
Excerpt: Supplement MBT2-18-e70121-s002.doc, table 9 | column: Wet Exp. Result

[6] = system: gram‐positive and gram‐negative bacteria; conditions: external independent data set; ref Hu et al. ([2022]); cited from earlier work
Excerpt: TABLE 3 Prediction results of external independent data set using 10 models. | column: Result ^a

MIC K. pneumoniae [1]	MIC MRSA [2]	MIC P. aeruginosa [3]	MIC E. coli [4]	MIC S. aureus [5]	Compound	increase of antimicrobial activity against K. pneumoniae [1]	increase of antibacterial activity against MRSA [2]	increase of antimicrobial activity against S. aureus [5]	Wet Exp. Result (any bacteria)	Result (stapled AMP with high antimicrobial activity in the experiment) [6]
4 µg/mL	128 µg/mL	16 µg/mL	8 µg/mL	8 µg/mL	RILRKLRKKFLK [GAN‐P2‐2]					
					GFKDLLKGAAⓀALVⓀTVLF‐NH2 (sidechain bridge or staple) [LS‐AP1, lysine‐stapled AMP of the external independent data set from Hu et al. ([2022])]					Positive
					GFⓀDLLⓀGAAKALVKTVLF‐NH2 (sidechain bridge or staple) [LS‐AP3, lysine‐stapled AMP of the external independent data set from Hu et al. ([2022])]					Positive
					PKINLⓀILGⓀILRLAAAFK‐NH2 (sidechain bridge or staple) [LS‐PaD1, lysine‐stapled AMP of the external independent data set from Hu et al. ([2022])]					Positive
2 µg/mL	16 µg/mL	16 µg/mL	16 µg/mL	4 µg/mL	WKRIAKRLKKKLGRAKLF [VAE‐P3‐3]					
32 µg/mL		64 µg/mL	64 µg/mL	16 µg/mL	CC[C@H](C)[C@H](NC(=O)CN)C(=O)NCC(=O)N[C@@H](CCCCN)C(=O)N[C@@H](Cc1ccccc1)C(=O)N[C@@H](CC(C)C)C(=O)N[C@@H](Cc1c[nH]cn1)C(=O)N[C@@H](CO)C(=O)N[C@@H](C)C(=O)N[C@@H](CCCCN)C(=O)N[C@@H](CCCCN)C(=O)N[C@@H](Cc1ccccc1)C(=O)NCC(=O)N[C@@H](CCCCN)C(=O)N[C@H]1CSSC[C@@H](C(=O)N[C@H](C(=O)N[C@@H](CC(C)C)C(=O)N[C@@H](CC(N)=O)C(=O)N[C@@H](CO)C(=O)O)[C@@H](C)CC)NC(=O)CNC(=O)[C@H](C(C)C)NC(=O)[C@H](Cc2ccccc2)NC1=O [Mag2(i + 4)14Dc] (H-GIGKFLHSAKKFGKCFVGCILNS-OH; disulfide 15-19)					
256 µg/mL		> 512 µg/mL	512 µg/mL	> 512 µg/mL	CC[C@H](C)[C@H](NC(=O)CN)C(=O)NCC(=O)N[C@@H](CCCCN)C(=O)N[C@@H](Cc1ccccc1)C(=O)N[C@@H](CC(C)C)C(=O)N[C@@H](Cc1c[nH]cn1)C(=O)N[C@@H](CO)C(=O)N[C@@H](C)C(=O)N[C@@H](CCCCN)C(=O)N[C@@H](CCCCN)C(=O)N[C@@H](Cc1ccccc1)C(=O)NCC(=O)N[C@@H](CCCCN)C(=O)N[C@@H](C)C(=O)N[C@H]1CSSC[C@@H](C(=O)N[C@@H](CC(C)C)C(=O)N[C@@H](CC(N)=O)C(=O)N[C@@H](CO)C(=O)O)NC(=O)[C@H](CCC(=O)O)NC(=O)CNC(=O)[C@H](C(C)C)NC1=O [Mag2(i + 4)15Dc] (H-GIGKFLHSAKKFGKACVGECLNS-OH; disulfide 16-20)					
					FFGSVLⓀLIPⓀIL‐NH2 (sidechain bridge or staple) [LS‐PTa, lysine‐stapled AMP of the external independent data set from Hu et al. ([2022])]					Positive
1 µg/mL	8 µg/mL	4 µg/mL	16 µg/mL	2 µg/mL	WKRIARKLKRKLGRAKLF [VAE‐P3‐5]					
					GFKDLLⓀGAAⓀALVKTVLF‐NH2 (sidechain bridge or staple) [LS‐AP2, lysine‐stapled AMP of the external independent data set from Hu et al. ([2022])]					Positive
4 µg/mL	128 µg/mL	32 µg/mL	16 µg/mL	8 µg/mL	RILRKLKKRFLK [GAN‐P2‐3]					
					VKRFKⓀFFRⓀFKKFV‐NH2 (sidechain bridge or staple) [LS‐BF1, lysine‐stapled AMP of the external independent data set from Hu et al. ([2022])]					Positive
					FFGKVLⓀLIRⓀIF‐NH2 (sidechain bridge or staple) [LS‐DAS, lysine‐stapled AMP of the external independent data set from Hu et al. ([2022])]					Positive
4 µg/mL	64 µg/mL	32 µg/mL	8 µg/mL	8 µg/mL	RILRKLRKRFLK [GAN‐P2‐4]					
					PⓀINLⓀILGKILRLAAAFK‐NH2 (sidechain bridge or staple) [LS‐PaD2, lysine‐stapled AMP of the external independent data set from Hu et al. ([2022])]					Positive
					VⓀRFKⓀFFRKFKKFV‐NH2 (sidechain bridge or staple) [LS‐BF2, lysine‐stapled AMP of the external independent data set from Hu et al. ([2022])]					Positive

Compound	MIC K. pneumoniae [1]	MIC MRSA [2]	MIC P. aeruginosa [3]	MIC E. coli [4]	MIC S. aureus [5]	increase of antimicrobial activity against K. pneumoniae [1]	increase of antibacterial activity against MRSA [2]	increase of antimicrobial activity against S. aureus [5]	Wet Exp. Result (any bacteria)	Result (stapled AMP with high antimicrobial activity in the experiment) [6]
CC[C@H](C)[C@H](NC(=O)[C@@H](N)CCCNC(=N)N)C(=O)N[C@@H](CC(C)C)C(=O)N[C@@H](CCCNC(=N)N)C(=O)N[C@@H](CCCCN)C(=O)N[C@@H](CC(C)C)C(=O)N[C@@H](CCCNC(=N)N)C(=O)N[C@H]1CCCCNC/C=C/CNCCCC[C@@H](C(=O)O)NC(=O)[C@H](CC(C)C)NC(=O)[C@H](Cc2ccccc2)NC(=O)[C@H](CCCCN)NC1=O [GAN‐P2‐2‐St] (H-RILRKLR[X1]KFL[X1]-OH; staple (E) 8-12)	1 µg/mL (≈ 0.606 µM)	8 µg/mL (≈ 4.85 µM)	32 µg/mL (≈ 19.4 µM)	16 µg/mL (≈ 9.69 µM)	2 µg/mL (≈ 1.21 µM)	2–4 fold	16 fold	4 fold	Positive	
CC[C@H](C)[C@H](NC(=O)[C@H](CCCNC(=N)N)NC(=O)[C@H](CCCCN)NC(=O)[C@@H](N)Cc1c[nH]c2ccccc12)C(=O)N[C@@H](C)C(=O)N[C@H]1CCCCNC/C=C/CNCCCC[C@@H](C(=O)N[C@@H](CCCCN)C(=O)N[C@@H](CC(C)C)C(=O)NCC(=O)N[C@@H](CCCNC(=N)N)C(=O)N[C@@H](C)C(=O)N[C@@H](CCCCN)C(=O)N[C@@H](CC(C)C)C(=O)N[C@@H](Cc2ccccc2)C(=O)O)NC(=O)[C@H](CCCCN)NC(=O)[C@H](CC(C)C)NC(=O)[C@H](CCCNC(=N)N)NC1=O [VAE‐P3‐3‐St] (H-WKRIA[X1]RLK[X1]KLGRAKLF-OH; staple (E) 6-10)	1 µg/mL (≈ 0.436 µM)	4 µg/mL (≈ 1.74 µM)	16 µg/mL (≈ 6.98 µM)	16 µg/mL (≈ 6.98 µM)	4 µg/mL (≈ 1.74 µM)	2–4 fold	4 fold		Positive	
CC[C@H](C)[C@H](NC(=O)[C@@H](N)CCCNC(=N)N)C(=O)N[C@@H](CC(C)C)C(=O)N[C@@H](CCCNC(=N)N)C(=O)N[C@@H](CCCCN)C(=O)N[C@@H](CC(C)C)C(=O)N[C@@H](CCCCN)C(=O)N[C@H]1CCCCNC/C=C/CNCCCC[C@@H](C(=O)O)NC(=O)[C@H](CC(C)C)NC(=O)[C@H](Cc2ccccc2)NC(=O)[C@H](CCCNC(=N)N)NC1=O [GAN‐P2‐3‐St] (H-RILRKLK[X1]RFL[X1]-OH; staple (E) 8-12)	1 µg/mL (≈ 0.606 µM)	8 µg/mL (≈ 4.85 µM)	32 µg/mL (≈ 19.4 µM)	16 µg/mL (≈ 9.69 µM)	2 µg/mL (≈ 1.21 µM)	2–4 fold	16 fold	4 fold	Positive	
CC[C@H](C)[C@H](NC(=O)[C@H](CCCNC(=N)N)NC(=O)[C@H](CCCCN)NC(=O)[C@@H](N)Cc1c[nH]c2ccccc12)C(=O)N[C@@H](C)C(=O)N[C@@H](CCCNC(=N)N)C(=O)N[C@H]1CCCCNC/C=C/CNCCCC[C@@H](C(=O)N[C@@H](CC(C)C)C(=O)NCC(=O)N[C@@H](CCCNC(=N)N)C(=O)N[C@@H](C)C(=O)N[C@@H](CCCCN)C(=O)N[C@@H](CC(C)C)C(=O)N[C@@H](Cc2ccccc2)C(=O)O)NC(=O)[C@H](CCCNC(=N)N)NC(=O)[C@H](CCCCN)NC(=O)[C@H](CC(C)C)NC1=O [VAE‐P3‐5‐St] (H-WKRIAR[X1]LKR[X1]LGRAKLF-OH; staple (E) 7-11)	4 µg/mL (≈ 1.72 µM)	16 µg/mL (≈ 6.89 µM)	32 µg/mL (≈ 13.8 µM)	16 µg/mL (≈ 6.89 µM)	4 µg/mL (≈ 1.72 µM)				Positive	
